Source: ChEMBL document CHEMBL1201862, “PubChem BioAssay data set” (2004)
Calls of active or inactive are those of the source.

Legend:
[1] = biological target: Glyceraldehyde-3-phosphate dehydrogenase (Homo sapiens, UniProt P04406)
[2] = biological target: Alkaline phosphatase, placental type (Homo sapiens, UniProt P05187); assay: human placental alkaline phosphatase inhibition – biochemical, luminescence, confirmation (AID 1512); assay type: functional
[3] = biological target: T1, Alkaline phosphatase, tissue-nonspecific isozyme (Homo sapiens, UniProt P05186); assay: potency against alkaline phosphatase TNAP – biochemical, luminescent, dose response, SAR follow-up (AID 1056)
T1 sequence (P05186 whole entry): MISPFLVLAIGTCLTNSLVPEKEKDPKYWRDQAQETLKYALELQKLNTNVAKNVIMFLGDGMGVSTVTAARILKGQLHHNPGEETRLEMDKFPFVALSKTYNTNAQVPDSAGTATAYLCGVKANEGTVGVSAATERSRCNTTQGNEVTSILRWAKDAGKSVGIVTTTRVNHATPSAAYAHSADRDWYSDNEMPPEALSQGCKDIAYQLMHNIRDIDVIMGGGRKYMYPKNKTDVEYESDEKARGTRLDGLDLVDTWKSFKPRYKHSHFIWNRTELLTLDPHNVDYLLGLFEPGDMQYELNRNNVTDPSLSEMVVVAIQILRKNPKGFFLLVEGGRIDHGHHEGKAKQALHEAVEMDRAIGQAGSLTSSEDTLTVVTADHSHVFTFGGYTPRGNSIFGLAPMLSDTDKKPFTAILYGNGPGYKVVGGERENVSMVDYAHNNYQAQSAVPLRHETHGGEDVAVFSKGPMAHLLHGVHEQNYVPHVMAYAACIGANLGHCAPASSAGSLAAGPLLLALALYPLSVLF

[4] = NIH-3T3 fibroblast cytotoxicity, dose response, cytotoxicity control, cell-based, fluorescence, Alamar Blue, secondary assay (AID 2327); assay type: functional;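 note: NIH-3T3 mouse fibroblasts cultured with fluconazole at 8 µg/mL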
[5] = fluconazole-exposed Candida albicans growth modulators – fluorescence, retest, confirmation (AID 2467); assay type: functional, cell-based
[6] = biological target: DNA damage-inducible transcript 3 protein (Mus musculus, UniProt P35639); assay type: functional, Cricetulus griseus
X-box-binding protein 1 = X-box-binding protein 1 (Homo sapiens, UniProt P17861); assay type: functional, Cricetulus griseus;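 note: confirmatory dose-response counter-screen serving a CHOP assay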
Sequence of X-box-binding protein 1 (P17861 whole entry): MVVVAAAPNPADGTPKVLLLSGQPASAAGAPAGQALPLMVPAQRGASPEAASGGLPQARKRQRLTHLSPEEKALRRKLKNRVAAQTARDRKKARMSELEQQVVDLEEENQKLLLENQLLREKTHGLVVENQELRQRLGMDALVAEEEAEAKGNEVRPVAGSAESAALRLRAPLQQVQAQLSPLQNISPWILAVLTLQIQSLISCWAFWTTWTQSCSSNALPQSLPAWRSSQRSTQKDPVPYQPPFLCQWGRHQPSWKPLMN

[7] = biological target: G-protein coupled receptor 55 (Homo sapiens, UniProt Q9Y2T6); assay: inhibition of LPI-stimulated GPR55 beta-arrestin translocation – imaging, U2OS, beta-arrestin-GFP, LPI agonist, primary screen (AID 2013); assay type: functional;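 note: antagonist potency measured as reduced agonist-driven arrestin aggregation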
Exodeoxyribonuclease V = Exodeoxyribonuclease V (Escherichia coli (strain K12), UniProt P04993+P07648+P08394); assay: RecBCD inhibition via phage-restricted bacterial growth – absorbance, V66 E. coli, mutant T4 phage, counter-screen for AddAB inhibitor project, dose response (AID 492957); assay type: functional, cell-based, Escherichia coli str. K-12 substr. MG1655
Sequence of Exodeoxyribonuclease V (P04993 whole entry): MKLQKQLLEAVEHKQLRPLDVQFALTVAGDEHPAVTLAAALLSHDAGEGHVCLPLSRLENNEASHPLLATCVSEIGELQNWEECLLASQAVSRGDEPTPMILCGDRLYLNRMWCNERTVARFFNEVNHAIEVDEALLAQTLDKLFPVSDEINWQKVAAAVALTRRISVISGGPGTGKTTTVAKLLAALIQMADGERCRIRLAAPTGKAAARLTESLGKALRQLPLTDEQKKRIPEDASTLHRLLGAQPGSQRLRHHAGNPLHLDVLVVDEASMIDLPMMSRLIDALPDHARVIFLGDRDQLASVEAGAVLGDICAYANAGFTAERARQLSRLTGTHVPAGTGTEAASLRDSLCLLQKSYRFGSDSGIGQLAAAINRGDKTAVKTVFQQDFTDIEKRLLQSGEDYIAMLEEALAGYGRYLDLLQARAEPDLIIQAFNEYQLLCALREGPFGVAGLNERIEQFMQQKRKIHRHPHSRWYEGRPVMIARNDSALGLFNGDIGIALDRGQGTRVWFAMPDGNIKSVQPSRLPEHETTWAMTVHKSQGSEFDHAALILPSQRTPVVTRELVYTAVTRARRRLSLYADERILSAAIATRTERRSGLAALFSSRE
Sequence of Exodeoxyribonuclease V (P07648 whole entry): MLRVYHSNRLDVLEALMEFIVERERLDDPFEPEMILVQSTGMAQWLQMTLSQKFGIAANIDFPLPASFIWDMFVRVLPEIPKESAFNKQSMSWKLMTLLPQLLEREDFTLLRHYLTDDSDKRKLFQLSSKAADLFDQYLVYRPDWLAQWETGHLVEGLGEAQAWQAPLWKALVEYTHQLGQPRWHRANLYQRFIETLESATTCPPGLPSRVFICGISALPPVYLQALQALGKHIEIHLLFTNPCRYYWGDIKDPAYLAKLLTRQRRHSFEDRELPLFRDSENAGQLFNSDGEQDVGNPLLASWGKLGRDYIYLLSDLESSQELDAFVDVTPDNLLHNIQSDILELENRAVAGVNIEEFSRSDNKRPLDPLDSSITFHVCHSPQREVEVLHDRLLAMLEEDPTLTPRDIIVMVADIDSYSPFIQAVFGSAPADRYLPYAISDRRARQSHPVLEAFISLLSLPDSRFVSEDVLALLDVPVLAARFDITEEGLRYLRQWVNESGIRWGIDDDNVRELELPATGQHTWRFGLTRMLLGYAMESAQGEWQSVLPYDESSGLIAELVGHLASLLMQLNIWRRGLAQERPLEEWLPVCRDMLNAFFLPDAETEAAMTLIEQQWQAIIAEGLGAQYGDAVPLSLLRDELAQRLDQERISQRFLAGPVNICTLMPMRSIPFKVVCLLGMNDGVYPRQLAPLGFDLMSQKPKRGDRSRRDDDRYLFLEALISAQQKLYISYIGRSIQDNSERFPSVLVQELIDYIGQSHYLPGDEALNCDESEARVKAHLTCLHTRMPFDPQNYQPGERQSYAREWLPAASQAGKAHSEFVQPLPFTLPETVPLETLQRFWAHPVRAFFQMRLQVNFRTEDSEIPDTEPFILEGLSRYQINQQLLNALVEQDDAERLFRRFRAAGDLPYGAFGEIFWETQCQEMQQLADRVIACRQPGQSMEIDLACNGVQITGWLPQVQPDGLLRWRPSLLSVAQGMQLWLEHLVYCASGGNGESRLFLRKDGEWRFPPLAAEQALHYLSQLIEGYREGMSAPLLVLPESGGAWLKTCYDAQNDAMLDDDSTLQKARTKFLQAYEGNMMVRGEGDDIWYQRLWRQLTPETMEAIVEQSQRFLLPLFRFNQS
Sequence of Exodeoxyribonuclease V (P08394 whole entry): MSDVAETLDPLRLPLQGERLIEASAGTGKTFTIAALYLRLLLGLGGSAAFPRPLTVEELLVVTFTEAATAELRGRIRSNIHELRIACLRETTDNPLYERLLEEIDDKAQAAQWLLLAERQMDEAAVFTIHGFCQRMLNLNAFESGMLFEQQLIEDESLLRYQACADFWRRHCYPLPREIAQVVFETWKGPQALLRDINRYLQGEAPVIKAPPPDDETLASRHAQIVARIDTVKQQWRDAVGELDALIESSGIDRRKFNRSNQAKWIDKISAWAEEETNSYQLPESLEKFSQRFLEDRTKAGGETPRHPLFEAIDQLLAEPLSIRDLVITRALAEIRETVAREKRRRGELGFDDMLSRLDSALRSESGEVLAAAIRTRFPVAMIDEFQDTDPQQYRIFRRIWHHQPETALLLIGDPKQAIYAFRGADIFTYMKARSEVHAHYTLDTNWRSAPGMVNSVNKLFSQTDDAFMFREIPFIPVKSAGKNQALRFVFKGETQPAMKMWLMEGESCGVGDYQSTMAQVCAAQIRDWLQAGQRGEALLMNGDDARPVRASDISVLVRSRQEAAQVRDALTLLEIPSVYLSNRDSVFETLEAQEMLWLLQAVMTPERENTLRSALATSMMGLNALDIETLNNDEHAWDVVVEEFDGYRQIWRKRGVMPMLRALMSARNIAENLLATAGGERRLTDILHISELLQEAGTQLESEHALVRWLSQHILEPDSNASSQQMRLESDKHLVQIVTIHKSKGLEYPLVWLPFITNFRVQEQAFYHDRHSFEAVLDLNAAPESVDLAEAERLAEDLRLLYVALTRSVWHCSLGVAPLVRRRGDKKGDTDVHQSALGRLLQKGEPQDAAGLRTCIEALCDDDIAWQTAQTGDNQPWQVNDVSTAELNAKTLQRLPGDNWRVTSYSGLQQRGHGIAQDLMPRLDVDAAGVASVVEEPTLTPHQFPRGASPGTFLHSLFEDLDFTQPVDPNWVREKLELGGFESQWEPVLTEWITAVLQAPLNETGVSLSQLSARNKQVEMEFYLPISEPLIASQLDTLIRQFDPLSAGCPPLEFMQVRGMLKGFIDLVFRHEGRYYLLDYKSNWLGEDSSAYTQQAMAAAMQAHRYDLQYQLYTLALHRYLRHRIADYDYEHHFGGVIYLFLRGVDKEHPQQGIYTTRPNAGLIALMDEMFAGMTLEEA

[8] = Counterscreen for AddAB inhibitors: absorbance-based bacterial cell-based high throughput dose response assay for inhibitors of bacterial viability. [Related pubchem assays (depositor defined):AID435030, AID449728, AID449731, AID488942, AID488955, AID488956]; assay type: functional
[9] = biological target: T2, Voltage-gated N-type calcium channel alpha-1B subunit/Amyloid beta A4 precursor protein-binding family A member 1 (Homo sapiens, UniProt Q00975+Q02410); assay type: protein assay
[10] = biological target: T2, Voltage-gated N-type calcium channel alpha-1B subunit/Amyloid beta A4 precursor protein-binding family A member 1; assay type: protein assay; remark: listed apart in the source
[11] = biological target: T3, E3 ubiquitin-protein ligase XIAP (Homo sapiens, UniProt P98170); assay: Counter Screen using XIAP-Bir3 for Chemical Antagonists of Bir1/2 domains of IAP-family anti-apoptotic proteins. [Related pubchem assays (depositor defined):AID1018, AID1449, AID1514, AID1638, AID1749, AID1750, AID488957, AID488963]
T3 sequence (P98170 whole entry): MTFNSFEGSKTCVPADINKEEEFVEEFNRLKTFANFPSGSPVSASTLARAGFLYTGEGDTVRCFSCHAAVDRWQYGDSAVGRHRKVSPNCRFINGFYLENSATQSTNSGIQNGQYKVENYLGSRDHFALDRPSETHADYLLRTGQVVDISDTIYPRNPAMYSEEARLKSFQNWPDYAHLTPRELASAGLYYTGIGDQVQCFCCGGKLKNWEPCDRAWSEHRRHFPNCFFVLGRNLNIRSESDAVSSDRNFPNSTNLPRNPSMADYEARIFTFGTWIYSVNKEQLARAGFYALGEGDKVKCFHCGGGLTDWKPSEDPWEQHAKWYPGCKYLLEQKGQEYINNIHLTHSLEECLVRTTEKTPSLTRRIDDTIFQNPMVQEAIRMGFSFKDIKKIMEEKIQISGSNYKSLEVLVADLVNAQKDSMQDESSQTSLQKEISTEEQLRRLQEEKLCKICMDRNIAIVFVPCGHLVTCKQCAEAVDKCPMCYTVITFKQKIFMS

[12] = biological target: T3, E3 ubiquitin-protein ligase XIAP; assay: small molecules displacing peptide from XIAP – biochemical, IAP family, fluorescence polarization (AID 1018); assay type: functional
[13] = biological target: T4, Rac GTPase-activating protein 1 (Homo sapiens, UniProt Q9H0H5); assay: blockers of MgcRacGAP-driven Rac1 GTP hydrolysis – biochemical, ADP Hunter fluorescence, primary and confirmatory, confirmation (AID 624330); assay type: functional
T4 sequence (Q9H0H5 whole entry): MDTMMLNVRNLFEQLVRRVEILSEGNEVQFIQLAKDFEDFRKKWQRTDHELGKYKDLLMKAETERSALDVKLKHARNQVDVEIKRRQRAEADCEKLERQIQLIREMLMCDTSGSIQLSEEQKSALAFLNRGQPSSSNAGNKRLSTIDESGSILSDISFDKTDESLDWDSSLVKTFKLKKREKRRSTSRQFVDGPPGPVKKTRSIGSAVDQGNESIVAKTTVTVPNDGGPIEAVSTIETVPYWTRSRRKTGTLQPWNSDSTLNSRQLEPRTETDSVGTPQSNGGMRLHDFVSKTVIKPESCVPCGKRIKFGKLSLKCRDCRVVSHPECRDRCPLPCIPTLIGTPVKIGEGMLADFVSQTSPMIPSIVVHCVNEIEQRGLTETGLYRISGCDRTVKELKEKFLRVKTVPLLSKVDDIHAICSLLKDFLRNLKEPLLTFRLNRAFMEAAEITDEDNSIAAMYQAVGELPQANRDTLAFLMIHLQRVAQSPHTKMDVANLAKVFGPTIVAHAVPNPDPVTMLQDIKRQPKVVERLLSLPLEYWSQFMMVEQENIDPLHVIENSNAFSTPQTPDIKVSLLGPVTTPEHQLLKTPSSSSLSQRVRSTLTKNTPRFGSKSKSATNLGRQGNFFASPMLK

Coagulation factor XII = biological target: T5, Coagulation factor XII (Homo sapiens, UniProt P00748); assay: activated coagulation factor XII inhibitor potency, concentration-effect curve, cell-free (AID 716); assay type: functional
T5 sequence (P00748 whole entry): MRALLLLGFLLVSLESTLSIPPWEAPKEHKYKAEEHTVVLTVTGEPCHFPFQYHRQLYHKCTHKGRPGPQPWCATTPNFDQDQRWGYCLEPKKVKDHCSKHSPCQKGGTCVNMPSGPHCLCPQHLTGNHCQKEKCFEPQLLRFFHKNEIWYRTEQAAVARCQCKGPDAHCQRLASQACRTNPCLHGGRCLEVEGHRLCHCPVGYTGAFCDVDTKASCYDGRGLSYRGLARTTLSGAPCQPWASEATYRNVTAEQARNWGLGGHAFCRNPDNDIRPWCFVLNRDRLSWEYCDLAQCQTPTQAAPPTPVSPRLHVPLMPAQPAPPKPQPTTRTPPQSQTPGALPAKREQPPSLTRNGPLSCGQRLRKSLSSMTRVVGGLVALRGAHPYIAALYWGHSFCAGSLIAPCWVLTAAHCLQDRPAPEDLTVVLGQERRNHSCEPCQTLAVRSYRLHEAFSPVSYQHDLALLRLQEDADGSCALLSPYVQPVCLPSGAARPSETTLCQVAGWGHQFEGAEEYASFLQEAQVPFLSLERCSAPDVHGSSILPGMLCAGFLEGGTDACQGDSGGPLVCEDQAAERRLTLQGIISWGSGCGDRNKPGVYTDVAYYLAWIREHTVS

HEK293 [14] = assay: inhibition of NOD1-driven NF-kB reporter – cell-based, luminescence, uHTS, primary screen (AID 1578); assay type: functional; conditions: Homo sapiens
HEK293 [15] = assay: cells; assay type: functional, cell-based; conditions: Homo sapiens
HEK293 [16] = assay: cells; assay type: functional, cell-based; conditions: Homo sapiens; remark: listed apart in the source
[17] = biological target: Nucleotide-binding oligomerization domain-containing protein 2 (Homo sapiens, UniProt Q9HC29); assay: inhibition of NOD2-driven NF-kB reporter – cell-based, luminescence, uHTS, HEK293 (AID 1566); assay type: functional
Sequence of Nucleotide-binding oligomerization domain-containing protein 2 (Q9HC29 whole entry, the tested form may be a part): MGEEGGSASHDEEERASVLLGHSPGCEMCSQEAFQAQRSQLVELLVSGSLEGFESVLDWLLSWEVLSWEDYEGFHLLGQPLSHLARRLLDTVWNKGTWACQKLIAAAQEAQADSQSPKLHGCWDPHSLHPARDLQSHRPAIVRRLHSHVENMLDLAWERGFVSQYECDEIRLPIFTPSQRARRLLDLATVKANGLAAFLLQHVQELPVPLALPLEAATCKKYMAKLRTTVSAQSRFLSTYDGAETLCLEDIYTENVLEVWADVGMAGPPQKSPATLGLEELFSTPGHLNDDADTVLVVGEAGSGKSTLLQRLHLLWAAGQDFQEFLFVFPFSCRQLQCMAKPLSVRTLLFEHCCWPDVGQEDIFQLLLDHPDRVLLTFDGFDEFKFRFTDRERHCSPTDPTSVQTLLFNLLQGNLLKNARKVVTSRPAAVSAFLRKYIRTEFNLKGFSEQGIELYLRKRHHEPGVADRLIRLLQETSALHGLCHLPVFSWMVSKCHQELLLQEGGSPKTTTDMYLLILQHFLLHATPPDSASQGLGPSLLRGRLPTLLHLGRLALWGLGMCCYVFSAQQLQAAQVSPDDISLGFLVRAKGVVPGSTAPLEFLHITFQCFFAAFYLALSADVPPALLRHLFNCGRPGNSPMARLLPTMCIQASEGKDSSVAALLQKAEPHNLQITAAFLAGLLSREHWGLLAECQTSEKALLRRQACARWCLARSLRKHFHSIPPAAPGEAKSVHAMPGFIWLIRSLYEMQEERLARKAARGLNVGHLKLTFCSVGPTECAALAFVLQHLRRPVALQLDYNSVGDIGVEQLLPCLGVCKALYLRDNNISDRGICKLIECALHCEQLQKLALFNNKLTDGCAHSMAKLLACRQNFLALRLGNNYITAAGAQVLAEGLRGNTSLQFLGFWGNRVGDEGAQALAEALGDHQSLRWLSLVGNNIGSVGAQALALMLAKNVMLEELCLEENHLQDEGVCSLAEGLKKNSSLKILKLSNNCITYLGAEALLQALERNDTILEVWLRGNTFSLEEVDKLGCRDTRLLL

HEK293 [18] = assay: NOD2 signaling inhibitors in MDP-stimulated cells, cell-based, uHTS, luminescence (AID 2001); assay type: functional; conditions: Homo sapiens
HEK293 [19] = assay: cells; assay type: functional, cell-based; conditions: Homo sapiens; remark: listed apart in the source
[20] = HEK-293T viability loss after treatment – luminescence, T-cell screen hits, cytotoxicity control for TCR NF-kB inhibitor project, dose response (AID 489026); assay type: functional, cell-based;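 note: cells exposed to compound about 14 hours before the viability readout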

Sequence of Glyceraldehyde-3-phosphate dehydrogenase (P04406 whole entry): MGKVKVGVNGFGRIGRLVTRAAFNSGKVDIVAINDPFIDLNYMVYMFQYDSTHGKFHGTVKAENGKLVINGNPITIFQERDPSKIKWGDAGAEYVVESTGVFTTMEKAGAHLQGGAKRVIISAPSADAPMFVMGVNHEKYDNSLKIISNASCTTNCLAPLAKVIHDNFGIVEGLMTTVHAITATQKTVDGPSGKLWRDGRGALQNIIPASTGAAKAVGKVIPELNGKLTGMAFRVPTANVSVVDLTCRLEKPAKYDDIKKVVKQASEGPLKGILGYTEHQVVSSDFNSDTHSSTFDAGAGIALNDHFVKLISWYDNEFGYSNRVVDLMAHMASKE

In the case of `O=C(c1cc(-c2ccc(Cl)cc2Cl)n[nH]1)N1CCCCC1`, the IC50 [1] is reported as > 100 µM (not active), the IC50 [2] is reported as > 100 µM (inactive) and the IC50 [3] is reported as 2.52 µM (active).
In the case of `CCCc1ccc(Oc2c[nH]nc2-c2ccc(O)cc2O)cc1`, the EC50 [4] is reported as > 150 µM (inconclusive), the EC50 [5] is reported as > 38 µM (not active) and the “Absolute IC50 (CHOP)” value [6] is reported as 10 µM. For the same compound, the “Absolute IC50 (XBP1)” value (X-box-binding protein 1) was 10 µM.
With `S=C(Nc1ccc(Oc2ccccc2)cc1)N(CCCN1CCOCC1)Cc1ccccn1` the IC50 [7] was 2.71 µM (active).
For `O=C(CCC1CCCC1)NNC(=O)c1cc2ccccc2cc1O`, the IC50 (Exodeoxyribonuclease V) was > 119 µM (inactive) and the IC50 [8] was > 119 µM (inactive).
In the case of `COc1ccc(/C=C/C(=O)NC(=S)Nc2ccc(S(=O)(=O)N=C(N)N)cc2)cc1OC`, the IC50 [9] is reported as 4.65 µM (active) and the IC50 [10] is reported as > 50 µM (inactive).
In the case of `O=C(CSc1nc2ccccc2s1)Nc1ccc(N2CCOCC2)c(Cl)c1`, the IC50 (Exodeoxyribonuclease V) is reported as > 119 µM (inactive) and the IC50 [8] is reported as > 119 µM (inactive).
In the case of `O=C(/C=C/Nc1ccc(Nc2ccccc2)cc1)c1cccs1`, the IC50 [11] is reported as > 100 µM (inactive), the IC50 [12] is reported as > 100 µM (not active) and the IC50 [13] is reported as 230 µM (active).
For `C=CCOC(=O)C1=C(C)N=C(C)/C(=C(/O)OCC=C)C1c1ccc(O)cc1` (stereo not given), the IC50 (Coagulation factor XII) was > 50 µM (inactive).
With `COC(=O)Cc1nn(-c2nc3ccccc3s2)c(O)c1/C(C)=N/c1ccc(OC)cc1` the EC50 (HEK293 [14]) was < 0.31 µM (inactive), the IC50 (HEK293 [15]) was 1.13 µM (active) and the IC50 (HEK293 [16]) was > 20 µM (inactive). For the same compound, the EC50 [17] was 0.1 µM (active), the IC50 (HEK293 [18]) was 0.103 µM (active) and the IC50 (HEK293 [19]) was > 20 µM (inactive). The IC50 [20] was > 80 µM (inactive).
